For orientation: EC50 means the concentration needed to bring the measured effect to its halfway point. The term IC50 denotes the midpoint of a concentration-inhibition curve. As usually defined, the Ki is the equilibrium dissociation constant of an inhibitor or competing ligand from its target.

The source of these data is ChEMBL document CHEMBL1201862, “PubChem BioAssay data set” (2004).

Calls of active or inactive are those of the source.

Test [1] can be described thus: microbe, parasite or virus in culture. The conditions noted are these: Mycobacterium tuberculosis. The format is functional.
A short description of test [2]: NIH-3T3 fibroblast cytotoxicity, dose response, cytotoxicity control, cell-based, fluorescence, Alamar Blue, secondary assay (AID 2327).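 Note: NIH-3T3 mouse fibroblasts cultured with fluconazole at 8 µg/mL.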 The format is functional.
For test [3], the target named is T1, Ubiquitin-conjugating enzyme E2 N (Homo sapiens, UniProt P61088).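 Note: Dose-response confirmation in a TR-FRET assay detecting UBC13-driven polyubiquitin chain formation, inhibition measured.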
T1 sequence (P61088 whole entry): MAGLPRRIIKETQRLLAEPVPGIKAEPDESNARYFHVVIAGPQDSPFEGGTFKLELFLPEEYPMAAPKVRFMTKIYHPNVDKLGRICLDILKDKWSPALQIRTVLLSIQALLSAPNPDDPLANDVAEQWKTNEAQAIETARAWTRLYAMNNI
The format is functional.

The target in test [4] is Platelet-derived growth factor receptor alpha (Homo sapiens, UniProt P16234). Put plainly: Navigating the Kinome. Panel member name: PDGFRA. The format is functional.
Chain of Platelet-derived growth factor receptor alpha (P16234 whole entry): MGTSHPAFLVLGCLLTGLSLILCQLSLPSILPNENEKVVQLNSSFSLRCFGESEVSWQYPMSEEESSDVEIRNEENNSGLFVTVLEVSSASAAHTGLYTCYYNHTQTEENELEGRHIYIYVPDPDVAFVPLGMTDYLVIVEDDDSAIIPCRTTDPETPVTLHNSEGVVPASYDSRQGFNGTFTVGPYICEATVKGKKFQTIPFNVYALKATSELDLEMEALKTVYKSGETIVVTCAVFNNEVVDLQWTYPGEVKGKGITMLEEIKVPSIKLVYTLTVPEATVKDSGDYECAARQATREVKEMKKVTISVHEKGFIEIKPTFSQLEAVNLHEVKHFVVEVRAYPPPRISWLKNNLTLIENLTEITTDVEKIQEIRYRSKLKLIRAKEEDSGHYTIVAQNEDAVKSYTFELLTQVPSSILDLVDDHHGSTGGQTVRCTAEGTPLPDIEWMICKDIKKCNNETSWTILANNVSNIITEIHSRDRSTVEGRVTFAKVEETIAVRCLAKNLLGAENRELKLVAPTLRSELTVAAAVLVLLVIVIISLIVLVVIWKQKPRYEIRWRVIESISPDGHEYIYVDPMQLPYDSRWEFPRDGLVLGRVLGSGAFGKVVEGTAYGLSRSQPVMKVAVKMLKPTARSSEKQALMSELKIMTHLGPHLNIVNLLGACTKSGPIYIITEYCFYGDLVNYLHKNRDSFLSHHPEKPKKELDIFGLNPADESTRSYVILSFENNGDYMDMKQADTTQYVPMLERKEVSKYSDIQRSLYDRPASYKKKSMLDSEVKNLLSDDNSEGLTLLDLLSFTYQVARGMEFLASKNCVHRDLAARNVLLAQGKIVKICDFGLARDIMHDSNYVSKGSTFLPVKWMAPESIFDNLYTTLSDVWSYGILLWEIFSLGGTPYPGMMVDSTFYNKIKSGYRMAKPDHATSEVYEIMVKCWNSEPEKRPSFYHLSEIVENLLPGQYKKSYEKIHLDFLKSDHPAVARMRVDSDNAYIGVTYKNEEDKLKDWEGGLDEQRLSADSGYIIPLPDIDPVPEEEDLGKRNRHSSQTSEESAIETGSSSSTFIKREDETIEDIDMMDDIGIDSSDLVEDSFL
Test [5] has as its target Cyclin-dependent kinase 7 (Homo sapiens, UniProt P50613). The format is functional.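 Note: value comes from a kinome-wide kinase profiling panel in which CDK7 is one member.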
Test [6] addresses Calcium/calmodulin-dependent protein kinase type II subunit alpha (Homo sapiens, UniProt Q9UQM7). Kind of test: Navigating the Kinome. Panel member name: CAMK2A. The format is functional.
Test [7] addresses Leukocyte tyrosine kinase receptor (Homo sapiens, UniProt P29376). Kind of test: Navigating the Kinome. Panel member name: LTK. The format is functional.
The target in test [8] is Dual specificity protein kinase CLK4 (Homo sapiens, UniProt Q9HAZ1). The format is functional.
Test [9] concerns the target Dual specificity mitogen-activated protein kinase kinase 2 (Homo sapiens, UniProt P36507). Put plainly: Navigating the Kinome. Panel member name: MAP2K2. The format is functional.
Test [10] concerns the target T2, Mannose-6-phosphate isomerase (Homo sapiens, UniProt P34949).
T2 sequence (P34949 whole entry): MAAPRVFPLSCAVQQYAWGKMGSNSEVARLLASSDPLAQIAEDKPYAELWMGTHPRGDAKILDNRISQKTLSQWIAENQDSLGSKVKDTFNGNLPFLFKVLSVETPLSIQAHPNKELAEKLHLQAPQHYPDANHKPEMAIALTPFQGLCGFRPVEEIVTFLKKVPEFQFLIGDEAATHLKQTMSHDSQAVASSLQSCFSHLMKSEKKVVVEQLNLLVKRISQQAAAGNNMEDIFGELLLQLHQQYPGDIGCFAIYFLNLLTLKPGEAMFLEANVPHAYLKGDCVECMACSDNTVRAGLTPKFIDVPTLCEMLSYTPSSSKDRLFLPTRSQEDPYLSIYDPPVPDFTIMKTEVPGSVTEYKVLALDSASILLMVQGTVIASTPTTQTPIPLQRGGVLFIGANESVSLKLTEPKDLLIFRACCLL
Put plainly: MPI inhibition at elevated mannose 6-phosphate – biochemical, fluorescence intensity, high mannose 6-phosphate, primary screen (AID 1220).

The target of test [11] is Homeodomain-interacting protein kinase 4 (Homo sapiens, UniProt Q8NE63). The format is functional.
The next test has as its target SRSF protein kinase 1 (Homo sapiens, UniProt Q96SB4). The format is functional.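 Note: measured as one member of a kinome-wide kinase profiling panel.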
The target of test [12] is Tyrosine-protein kinase receptor UFO (Homo sapiens, UniProt P30530). The format is functional.
In test [13] the target is Testis-specific serine/threonine-protein kinase 1 (Homo sapiens, UniProt Q9BXA7). The format is functional.
Test [14] concerns the target Receptor tyrosine-protein kinase erbB-4 (Homo sapiens, UniProt Q15303). The format is functional.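 Note: ERBB4 member of a kinome-wide kinase profiling panel.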
Test [15] has as its target Serine/threonine-protein kinase PLK1 (Homo sapiens, UniProt P53350). The format is functional.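 Note: PLK1 measured as one member of a kinome-wide profiling panel.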
For test [16], the target named is Ribosomal protein S6 kinase alpha-5 (Homo sapiens, UniProt O75582). The format is functional.
Test [17] has as its target Eukaryotic elongation factor 2 kinase (Homo sapiens, UniProt O00418). The format is functional.
In test [18] the target is MAP kinase-activated protein kinase 5 (Homo sapiens, UniProt Q8IW41). The format is functional.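 Note: measured as one member of a kinome panel.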
In test [19] the target is Serine/threonine-protein kinase N2 (Homo sapiens, UniProt Q16513). The format is functional.
Test [20] has as its target Interleukin-1 receptor-associated kinase 1 (Homo sapiens, UniProt P51617). The format is functional.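 Note: IRAK1 tested as one member of a kinome panel.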
For test [21], the target named is Calcium/calmodulin-dependent protein kinase type II subunit gamma (Homo sapiens, UniProt Q13555). The format is functional.
The target in test [22] is Serine/threonine-protein kinase PAK 1 (Homo sapiens, UniProt Q13153). The format is functional.
Chain of Serine/threonine-protein kinase PAK 1 (Q13153 whole entry): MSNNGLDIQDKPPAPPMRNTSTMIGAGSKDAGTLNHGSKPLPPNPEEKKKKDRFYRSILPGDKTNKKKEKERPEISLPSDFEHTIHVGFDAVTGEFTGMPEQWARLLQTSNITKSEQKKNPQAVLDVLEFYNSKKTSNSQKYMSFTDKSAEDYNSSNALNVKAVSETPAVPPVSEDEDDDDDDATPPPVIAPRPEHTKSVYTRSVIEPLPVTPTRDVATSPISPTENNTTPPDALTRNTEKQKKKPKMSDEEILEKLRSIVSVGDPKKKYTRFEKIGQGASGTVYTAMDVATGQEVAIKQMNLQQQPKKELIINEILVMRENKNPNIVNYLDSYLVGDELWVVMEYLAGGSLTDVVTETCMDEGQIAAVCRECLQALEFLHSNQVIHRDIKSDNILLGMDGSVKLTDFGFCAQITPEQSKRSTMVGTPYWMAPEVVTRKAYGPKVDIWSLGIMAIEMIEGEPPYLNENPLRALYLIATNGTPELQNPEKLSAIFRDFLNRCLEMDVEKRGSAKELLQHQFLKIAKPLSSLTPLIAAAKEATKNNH
Another test concerns the target T3, Hexokinase HKDC1 (Homo sapiens, UniProt Q2TB90).
T3 sequence (Q2TB90 whole entry): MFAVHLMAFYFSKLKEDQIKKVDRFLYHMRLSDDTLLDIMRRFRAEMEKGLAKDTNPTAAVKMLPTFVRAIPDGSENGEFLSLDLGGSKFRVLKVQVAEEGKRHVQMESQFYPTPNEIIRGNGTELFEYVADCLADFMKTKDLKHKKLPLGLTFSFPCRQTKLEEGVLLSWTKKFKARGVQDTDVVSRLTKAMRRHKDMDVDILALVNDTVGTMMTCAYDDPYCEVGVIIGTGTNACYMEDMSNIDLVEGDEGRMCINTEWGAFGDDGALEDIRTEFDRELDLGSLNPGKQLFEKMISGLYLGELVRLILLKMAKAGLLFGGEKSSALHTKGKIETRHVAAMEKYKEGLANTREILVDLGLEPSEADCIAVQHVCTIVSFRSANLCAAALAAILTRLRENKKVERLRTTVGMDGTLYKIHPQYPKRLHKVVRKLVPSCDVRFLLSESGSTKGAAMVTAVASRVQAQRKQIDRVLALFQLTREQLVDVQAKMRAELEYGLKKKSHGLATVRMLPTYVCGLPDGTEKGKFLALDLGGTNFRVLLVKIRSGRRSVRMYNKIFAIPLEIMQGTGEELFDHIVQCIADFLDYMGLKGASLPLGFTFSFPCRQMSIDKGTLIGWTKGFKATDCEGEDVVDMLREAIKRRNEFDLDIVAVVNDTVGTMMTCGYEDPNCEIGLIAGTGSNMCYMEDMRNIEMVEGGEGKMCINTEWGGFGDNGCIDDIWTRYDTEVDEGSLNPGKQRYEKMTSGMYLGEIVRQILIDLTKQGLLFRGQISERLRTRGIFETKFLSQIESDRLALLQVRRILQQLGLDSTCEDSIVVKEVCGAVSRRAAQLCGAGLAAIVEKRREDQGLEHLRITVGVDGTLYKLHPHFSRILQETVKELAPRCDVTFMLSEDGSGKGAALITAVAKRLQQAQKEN
Put plainly: inhibition of HKDC1 glucose phosphorylation – biochemical, W721R variant, dose response (AID 504729). The format is functional.

Another test deals with Nonstructural protein 1 (Influenza A virus, UniProt Q194T2). The format is functional, Influenza A virus (A/California/07/2009(H1N1)).
Chain of Nonstructural protein 1 (Q194T2 whole entry): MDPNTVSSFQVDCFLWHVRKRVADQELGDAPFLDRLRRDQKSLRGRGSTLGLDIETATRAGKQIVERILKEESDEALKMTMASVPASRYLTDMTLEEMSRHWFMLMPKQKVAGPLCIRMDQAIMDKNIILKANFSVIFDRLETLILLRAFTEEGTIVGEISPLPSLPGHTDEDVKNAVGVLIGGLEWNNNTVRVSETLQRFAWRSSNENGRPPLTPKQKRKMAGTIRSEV

Chain of Interleukin-1 receptor-associated kinase 1 (P51617 whole entry): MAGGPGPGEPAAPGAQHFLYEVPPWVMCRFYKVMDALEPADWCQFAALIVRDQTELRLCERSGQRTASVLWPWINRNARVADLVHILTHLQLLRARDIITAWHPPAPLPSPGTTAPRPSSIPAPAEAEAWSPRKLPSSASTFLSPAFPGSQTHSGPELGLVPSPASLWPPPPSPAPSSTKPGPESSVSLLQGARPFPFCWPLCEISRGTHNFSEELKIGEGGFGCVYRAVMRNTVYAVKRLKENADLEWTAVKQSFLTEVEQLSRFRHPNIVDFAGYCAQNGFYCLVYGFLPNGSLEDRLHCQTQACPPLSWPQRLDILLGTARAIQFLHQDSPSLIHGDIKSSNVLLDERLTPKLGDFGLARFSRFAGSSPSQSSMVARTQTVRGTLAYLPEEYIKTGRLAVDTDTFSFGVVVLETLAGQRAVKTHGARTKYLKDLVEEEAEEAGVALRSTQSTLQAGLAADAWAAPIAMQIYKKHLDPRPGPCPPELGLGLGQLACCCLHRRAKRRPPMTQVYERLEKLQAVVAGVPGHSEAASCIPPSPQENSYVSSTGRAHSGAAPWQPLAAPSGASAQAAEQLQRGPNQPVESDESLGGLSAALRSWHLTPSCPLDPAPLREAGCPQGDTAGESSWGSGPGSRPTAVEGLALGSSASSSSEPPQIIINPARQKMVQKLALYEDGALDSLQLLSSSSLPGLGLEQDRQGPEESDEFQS
Chain of Eukaryotic elongation factor 2 kinase (O00418 whole entry): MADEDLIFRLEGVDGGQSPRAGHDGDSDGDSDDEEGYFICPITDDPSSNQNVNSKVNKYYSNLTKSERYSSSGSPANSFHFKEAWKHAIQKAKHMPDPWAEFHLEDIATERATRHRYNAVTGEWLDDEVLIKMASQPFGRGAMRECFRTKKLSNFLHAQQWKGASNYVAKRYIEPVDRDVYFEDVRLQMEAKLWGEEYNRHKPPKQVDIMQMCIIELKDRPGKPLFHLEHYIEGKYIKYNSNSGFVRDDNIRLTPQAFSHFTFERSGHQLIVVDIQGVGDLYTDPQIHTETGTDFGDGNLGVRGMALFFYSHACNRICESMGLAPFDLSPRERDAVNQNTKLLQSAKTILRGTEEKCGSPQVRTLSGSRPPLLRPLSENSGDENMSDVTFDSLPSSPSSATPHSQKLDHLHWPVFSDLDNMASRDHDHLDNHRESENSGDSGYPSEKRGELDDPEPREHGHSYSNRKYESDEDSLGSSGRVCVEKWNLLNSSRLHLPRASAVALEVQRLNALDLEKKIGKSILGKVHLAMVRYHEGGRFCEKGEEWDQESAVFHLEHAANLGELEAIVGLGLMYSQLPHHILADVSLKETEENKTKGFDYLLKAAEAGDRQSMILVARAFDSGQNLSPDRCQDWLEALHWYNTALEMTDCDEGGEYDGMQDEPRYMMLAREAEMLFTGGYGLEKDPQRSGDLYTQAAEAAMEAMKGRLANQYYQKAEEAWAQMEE
Chain of Calcium/calmodulin-dependent protein kinase type II subunit alpha (Q9UQM7 whole entry): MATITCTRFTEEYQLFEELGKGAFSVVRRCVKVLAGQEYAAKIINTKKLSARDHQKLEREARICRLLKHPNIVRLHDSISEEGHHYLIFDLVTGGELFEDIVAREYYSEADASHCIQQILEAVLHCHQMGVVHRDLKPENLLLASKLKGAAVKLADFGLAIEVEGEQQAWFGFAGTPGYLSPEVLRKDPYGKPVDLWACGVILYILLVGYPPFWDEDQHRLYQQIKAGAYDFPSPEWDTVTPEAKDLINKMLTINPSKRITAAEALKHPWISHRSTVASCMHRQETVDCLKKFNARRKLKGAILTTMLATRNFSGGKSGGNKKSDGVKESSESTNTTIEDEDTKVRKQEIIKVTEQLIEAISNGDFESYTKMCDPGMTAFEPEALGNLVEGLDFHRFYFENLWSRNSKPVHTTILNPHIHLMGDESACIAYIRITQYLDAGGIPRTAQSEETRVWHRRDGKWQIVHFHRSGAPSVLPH
Chain of SRSF protein kinase 1 (Q96SB4 whole entry): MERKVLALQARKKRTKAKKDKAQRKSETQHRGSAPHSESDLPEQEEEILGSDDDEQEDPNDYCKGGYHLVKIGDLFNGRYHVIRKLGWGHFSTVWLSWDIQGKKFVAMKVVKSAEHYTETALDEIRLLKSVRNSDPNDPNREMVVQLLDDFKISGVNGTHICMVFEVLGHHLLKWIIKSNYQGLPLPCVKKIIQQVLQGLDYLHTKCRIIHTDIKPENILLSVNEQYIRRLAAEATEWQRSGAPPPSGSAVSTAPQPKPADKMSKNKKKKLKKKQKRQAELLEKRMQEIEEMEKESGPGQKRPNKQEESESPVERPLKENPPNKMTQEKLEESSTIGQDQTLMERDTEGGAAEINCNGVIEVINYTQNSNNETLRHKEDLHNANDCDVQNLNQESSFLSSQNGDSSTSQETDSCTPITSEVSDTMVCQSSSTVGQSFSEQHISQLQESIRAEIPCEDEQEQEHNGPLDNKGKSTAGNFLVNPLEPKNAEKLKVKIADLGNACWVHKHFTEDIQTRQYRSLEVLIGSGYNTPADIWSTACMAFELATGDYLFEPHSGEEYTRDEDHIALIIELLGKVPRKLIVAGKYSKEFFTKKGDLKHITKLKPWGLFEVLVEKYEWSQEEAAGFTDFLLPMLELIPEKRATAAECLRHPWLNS
Chain of Serine/threonine-protein kinase PLK1 (P53350 whole entry): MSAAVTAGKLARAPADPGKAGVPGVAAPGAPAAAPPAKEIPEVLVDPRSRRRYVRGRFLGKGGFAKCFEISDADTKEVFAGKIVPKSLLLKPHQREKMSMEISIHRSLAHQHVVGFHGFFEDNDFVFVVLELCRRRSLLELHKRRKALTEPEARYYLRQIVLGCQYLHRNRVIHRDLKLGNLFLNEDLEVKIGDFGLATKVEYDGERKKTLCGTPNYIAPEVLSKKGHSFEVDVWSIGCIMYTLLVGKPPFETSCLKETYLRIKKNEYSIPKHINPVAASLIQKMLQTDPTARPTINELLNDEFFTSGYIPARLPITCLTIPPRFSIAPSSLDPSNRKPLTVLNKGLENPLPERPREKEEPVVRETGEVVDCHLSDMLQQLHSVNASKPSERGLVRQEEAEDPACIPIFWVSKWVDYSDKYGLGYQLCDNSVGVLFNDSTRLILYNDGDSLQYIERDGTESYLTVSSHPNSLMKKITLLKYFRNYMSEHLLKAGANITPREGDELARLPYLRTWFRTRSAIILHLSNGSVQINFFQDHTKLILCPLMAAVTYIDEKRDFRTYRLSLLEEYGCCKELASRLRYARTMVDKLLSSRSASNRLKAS

`CCCCCCCCCCC[N+](C)(C)CC/C=C1/c2ccccc2Sc2ccc(Cl)cc21`: the CC50 in [1] is 25.4 µM (active). For the same compound, the EC50 in [2] was > 150 µM (inconclusive). Further, the 50% inhibitory concentration (IC50) in test [3] was 4.77 µM (active).

With `CCn1c(-c2nonc2N)nc2cncc(C(=O)N3CCC(N)C3)c21` (stereo not given), the Ki was > 2.51 µM (inactive) in test [4]; 2.51 µM (active) in test [5]; > 7.94 µM (inactive) in test [6]; > 2.51 µM (inactive) in [7]; 0.0631 µM (active) in [8]; > 3.98 µM (inactive) in [9].

Turning to `Cc1cc(C)c[n+](C2=C([N-]S(=O)(=O)c3cccs3)C(=O)c3ccccc3C2=O)c1`, the IC50 in [10] is listed as > 50 µM (not active).

As for `Cc1[nH]nc2ccc(-c3cncc(OCC(N)Cc4c[nH]c5ccccc45)c3)cc12` (stereo not given), the inhibitory constant (Ki) is 0.501 µM (active) in test [11]; 1.26 µM (active) at SRSF protein kinase 1; 0.794 µM (active) in test [12]; 0.501 µM (active) in [13]; > 3.98 µM (inactive) in test [14]; > 7.94 µM (inactive) in test [15]. Moreover, the Ki in test [16] was 0.000794 µM (active); in test [17] it was > 3.98 µM (inactive); in [18], > 1.58 µM (inactive); in [19], 0.00501 µM (active); in test [20] it was 0.251 µM (active); in test [21], 0.0126 µM (active). Also, the inhibition constant Ki in [22] was 1.26 µM (active).

Consider `COC(=O)c1ccccc1NC1=C/C(=N\S(=O)(=O)c2cccs2)c2ccccc2C1=O`, for which the IC50 at Hexokinase HKDC1 is 27.5 µM (inactive); at Nonstructural protein 1, 5.16 µM (active).
